# Literature values as cited in US20110306626A1, “IMIDAZOLINONE DERIVATIVES AS CGRP RECEPTOR ANTAGONISTS” (priority 2008, published 2011).
# Ends that are not written are not given here.
# Assays:
# middle meningeal artery = conditions: rats, electrical stimulation of the dura mater, prior administration (Williamson et al. 1997)
# facial blood flow [1] = conditions: rat, trigeminal ganglion stimulation (Escott et al. 1995)
# [2] = test system: acute attacks of migraine; conditions: clinical trials (Olesen et al. 2004)
# [3] = test system: headache induced by CGRP infusion; conditions: control group (Petersen et al. 2005)
# facial blood flow [4] = conditions: marmoset, electrical stimulation of the trigeminal ganglion (Doods et al. 2000)
compound,measurement,setting,value
"CGRP(8-37): a peptide CGRP antagonist; fragment of CGRP that lacks seven N-terminal amino acid residues (VTHRLAGLLSRSGGVVKNNFVPTNVGSKAF; ends and bridges not checked; UniProt P06881 90-119, looked up, fragment)",increase of the diameter of the middle meningeal artery,middle meningeal artery,blocked
same,increase of facial blood flow,facial blood flow [1],inhibited
NCCCC[C@H](NC(=O)[C@@H](Cc1cc(Br)c(O)c(Br)c1)NC(=O)N1CCC(N2Cc3ccccc3NC2=O)CC1)C(=O)N1CCN(c2ccncc2)CC1 [BIBN4096BS],treatment of acute attacks of migraine,[2],effective in treating acute attacks of migraine
same,prevention of headache induced by CGRP infusion,[3],able to prevent headache induced by CGRP infusion
same,increase in facial blood flow,facial blood flow [4],could be blocked
